# In US9169254B2, “Spiroimidazolone derivative” (Chugai Seiyaku Kabushiki Kaisha, priority 2009, dated 2015):
# Target: T1, human PTH1 receptor (Homo sapiens, UniProt Q03431)
# T1 sequence (Q03431 27-593): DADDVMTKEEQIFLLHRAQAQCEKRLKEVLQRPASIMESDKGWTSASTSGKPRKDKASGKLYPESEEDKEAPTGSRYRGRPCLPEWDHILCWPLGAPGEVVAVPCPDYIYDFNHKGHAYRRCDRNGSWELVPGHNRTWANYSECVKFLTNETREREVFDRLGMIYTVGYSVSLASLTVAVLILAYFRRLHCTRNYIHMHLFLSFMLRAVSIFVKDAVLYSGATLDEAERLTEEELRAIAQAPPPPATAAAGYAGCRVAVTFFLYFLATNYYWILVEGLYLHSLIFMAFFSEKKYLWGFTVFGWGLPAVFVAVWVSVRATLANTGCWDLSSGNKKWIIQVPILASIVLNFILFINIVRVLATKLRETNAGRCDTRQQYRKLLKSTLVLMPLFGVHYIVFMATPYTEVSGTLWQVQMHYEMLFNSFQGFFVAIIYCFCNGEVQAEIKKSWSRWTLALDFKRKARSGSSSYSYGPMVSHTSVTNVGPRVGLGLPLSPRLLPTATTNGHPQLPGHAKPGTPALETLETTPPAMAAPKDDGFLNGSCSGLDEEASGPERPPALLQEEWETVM
# Test: In vitro cAMP signal activity in HKRK-B7 cells (LLC-PK1 cells overexpressing the human PTH1 receptor)
# Format: cell-based
# Conditions: HKRK-B7 cells; compound at 1×10^−3 M; cAMP produced as percentage of that produced by hPTH(1-34) at 100 nM
row,Structure (SMILES),cAMP production activity (%)
1,"Cc1cc(C(=O)N(C)CC(N)=O)cc(C)c1/C=C/S(=O)(=O)N1CCC2(CC1)N=C(c1cccc(C(F)(F)F)c1)NC2=O [Compound 392, N-carbamoylmethyl-3,5,N-trimethyl-4-{(E)-2-[4-oxo-2-(3-trifluoromethyl-phenyl)-1,3,8-triaza-spiro[4.5]dec-1-ene-8-sulfonyl]-vinyl}-benzamide]",83%
2,"Cc1cc(C(=O)N(C)C2CCN(C)CC2)cc(C)c1/C=C/S(=O)(=O)N1CCC2(CC1)N=C(c1cccc(C(F)(F)F)c1)NC2=O [Compound 393, 3,5,N-trimethyl-N-(1-methyl-piperidin-4-yl)-4-{(E)-2-[4-oxo-2-(3-trifluoromethyl-phenyl)-1,3,8-triaza-spiro[4.5]dec-1-ene-8-sulfonyl]-vinyl}-benzamide]",44%
3,"CC(=O)N1CCN(C(=O)c2cc(C)c(/C=C/S(=O)(=O)N3CCC4(CC3)N=C(c3cccc(OC(F)(F)F)c3)NC4=O)c(C)c2)CC1 [Compound 394, 8-{(E)-2-[4-(4-Acetyl-piperazine-1-carbonyl)-2,6-dimethyl-phenyl]-ethenesulfonyl}-2-(3-trifluoromethoxy-phenyl)-1,3,8-triaza-spiro[4.5]dec-1-en-4-one]",59%
4,"Cc1cc(C(=O)N2CCN(C(=O)N(C)C)CC2)cc(C)c1/C=C/S(=O)(=O)N1CCC2(CC1)N=C(c1cccc(OC(F)(F)F)c1)NC2=O [Compound 395, 4-(3,5-dimethyl-4-{(E)-2-[4-oxo-2-(3-trifluoromethoxy-phenyl)-1,3,8-triaza-spiro[4.5]dec-1-ene-8-sulfonyl]-vinyl}-benzoyl)-piperazine-1-carboxylic acid dimethylamide]",88%
5,"Cc1cc(C(=O)N2CCN(C(N)=O)CC2)cc(C)c1/C=C/S(=O)(=O)N1CCC2(CC1)N=C(c1cccc(OC(F)(F)F)c1)NC2=O [Compound 396, 4-(3,5-dimethyl-4-{(E)-2-[4-oxo-2-(3-trifluoromethoxy-phenyl)-1,3,8-triaza-spiro[4.5]dec-1-ene-8-sulfonyl]-vinyl}-benzoyl)-piperazine-1-carboxylic acid amide]",85%
6,"Cc1cc(C(=O)N2CCN(CCCN(C)C)CC2)cc(C)c1/C=C/S(=O)(=O)N1CCC2(CC1)N=C(c1cccc(OC(F)(F)F)c1)NC2=O [Compound 397, 8-((E)-2-{4-[4-(3-dimethylamino-propyl)-piperazine-1-carbonyl]-2,6-dimethyl-phenyl}-ethenesulfonyl)-2-(3-trifluoromethoxy-phenyl)-1,3,8-triaza-spiro[4.5]dec-1-en-4-one]",126%
7,"CN[C@@H]1CCN(C(=O)c2cc(C)c(/C=C/S(=O)(=O)N3CCC4(CC3)N=C(c3cccc(OC(F)(F)F)c3)NC4=O)c(C)c2)C1 [Compound 398, 8-{(E)-2-[2,6-dimethyl-4-((R)-3-methylamino-pyrrolidine-1-carbonyl)-phenyl]-ethenesulfonyl}-2-(3-trifluoromethoxy-phenyl)-1,3,8-triaza-spiro[4.5]dec-1-en-4-one]",52%
8,"Cc1cc(C(=O)N2CC[C@@H](N(C)C)C2)cc(C)c1/C=C/S(=O)(=O)N1CCC2(CC1)N=C(c1cccc(OC(F)(F)F)c1)NC2=O [Compound 399, 8-{(E)-2-[4-((R)-3-dimethylamino-pyrrolidine-1-carbonyl)-2,6-dimethyl-phenyl]-ethenesulfonyl}-2-(3-trifluoromethoxy-phenyl)-1,3,8-triaza-spiro[4.5]dec-1-en-4-one]",64%
9,"Cc1cc(C(=O)N2CCC(O)CC2)cc(C)c1/C=C/S(=O)(=O)N1CCC2(CC1)N=C(c1cccc(OC(F)(F)F)c1)NC2=O [Compound 400, 8-{(E)-2-[4-(4-hydroxy-piperidine-1-carbonyl)-2,6-dimethyl-phenyl]-ethenesulfonyl}-2-(3-trifluoromethoxy-phenyl)-1,3,8-triaza-spiro[4.5]dec-1-en-4-one]",76%
10,"Cc1cc(C(=O)N2CC[C@@H](O)C2)cc(C)c1/C=C/S(=O)(=O)N1CCC2(CC1)N=C(c1cccc(OC(F)(F)F)c1)NC2=O [Compound 401, 8-{(E)-2-[4-((R)-3-hydroxy-pyrrolidine-1-carbonyl)-2,6-dimethyl-phenyl]-ethenesulfonyl}-2-(3-trifluoromethoxy-phenyl)-1,3,8-triaza-spiro[4.5]dec-1-en-4-one]",83%
11,"Cc1cc(C(=O)N2CC[C@H](O)C2)cc(C)c1/C=C/S(=O)(=O)N1CCC2(CC1)N=C(c1cccc(OC(F)(F)F)c1)NC2=O [Compound 402, 8-{(E)-2-[4-((S)-3-hydroxy-pyrrolidine-1-carbonyl)-2,6-dimethyl-phenyl]-ethenesulfonyl}-2-(3-trifluoromethoxy-phenyl)-1,3,8-triaza-spiro[4.5]dec-1-en-4-one]",85%
12,"Cc1cc(C(=O)N2CCC(O)(CO)CC2)cc(C)c1/C=C/S(=O)(=O)N1CCC2(CC1)N=C(c1cccc(OC(F)(F)F)c1)NC2=O [Compound 403, 8-{(E)-2-[4-(4-hydroxy-4-hydroxymethyl-piperidine-1-carbonyl)-2,6-dimethyl-phenyl]-ethenesulfonyl}-2-(3-trifluoromethoxy-phenyl)-1,3,8-triaza-spiro[4.5]dec-1-en-4-one]",51%
13,"Cc1cc(C(=O)N2CC[C@@H](N)C2)cc(C)c1/C=C/S(=O)(=O)N1CCC2(CC1)N=C(c1cccc(OC(F)(F)F)c1)NC2=O [Compound 404, 8-{(E)-2-[4-((R)-3-amino-pyrrolidine-1-carbonyl)-2,6-dimethyl-phenyl]-ethenesulfonyl}-2-(3-trifluoromethoxy-phenyl)-1,3,8-triaza-spiro[4.5]dec-1-en-4-one]",88%
14,"Cc1cc(C(=O)N2CCC(N(C)C)CC2)cc(C)c1/C=C/S(=O)(=O)N1CCC2(CC1)N=C(c1cccc(OC(F)(F)F)c1)NC2=O [Compound 405, 8-{(E)-2-[4-(4-dimethylamino-piperidine-1-carbonyl)-2,6-dimethyl-phenyl]-ethenesulfonyl}-2-(3-trifluoromethoxy-phenyl)-1,3,8-triaza-spiro[4.5]dec-1-en-4-one]",7.7%
15,"Cc1cc(C(=O)N2C[C@H](NC(C)C)[C@@H](O)C2)cc(C)c1/C=C/S(=O)(=O)N1CCC2(CC1)N=C(c1cccc(OC(F)(F)F)c1)NC2=O [Compound 406, 8-{(E)-2-[4-((3S,4S)-3-hydroxy-4-isopropylamino-pyrrolidine-1-carbonyl)-2,6-dimethyl-phenyl]-ethenesulfonyl}-2-(3-trifluoromethoxy-phenyl)-1,3,8-triaza-spiro[4.5]dec-1-en-4-one]",100%
16,"Cc1cc(C(=O)N2CCC(OCCN(C)C)CC2)cc(C)c1/C=C/S(=O)(=O)N1CCC2(CC1)N=C(c1cccc(OC(F)(F)F)c1)NC2=O [Compound 407, 8-((E)-2-{4-[4-(2-dimethylamino-ethoxy)-piperidine-1-carbonyl]-2,6-dimethyl-phenyl}-ethenesulfonyl)-2-(3-trifluoromethoxy-phenyl)-1,3,8-triaza-spiro[4.5]dec-1-en-4-one]",49%
17,"Cc1cc(C(=O)N2CC(O)C2)cc(C)c1/C=C/S(=O)(=O)N1CCC2(CC1)N=C(c1cccc(OC(F)(F)F)c1)NC2=O [Compound 408, 8-{(E)-2-[4-(3-hydroxy-azetidine-1-carbonyl)-2,6-dimethyl-phenyl]-ethenesulfonyl}-2-(3-trifluoromethoxy-phenyl)-1,3,8-triaza-spiro[4.5]dec-1-en-4-one]",117%
18,"Cc1c(CCS(=O)(=O)N2CCC3(CC2)N=C(c2cccc(OC(F)(F)F)c2)NC3=O)cccc1C(=O)N(C)C [Compound 409, 2,N,N-Trimethyl-3-{2-[4-oxo-2-(3-trifluoromethoxy-phenyl)-1,3,8-triaza-spiro[4.5]dec-1-ene-8-sulfonyl]-ethyl}-benzamide]",55%
19,"Cc1c(CCS(=O)(=O)N2CCC3(CC2)N=C(c2cccc(OC(F)(F)F)c2)NC3=O)cccc1C(N)=O [Compound 410, 2-methyl-3-{2-[4-oxo-2-(3-trifluoromethoxy-phenyl)-1,3,8-triaza-spiro[4.5]dec-1-ene-8-sulfonyl]-ethyl}-benzamide]",96%
20,"Cc1c(CCS(=O)(=O)N2CCC3(CC2)N=C(c2cccc(OC(F)(F)F)c2)NC3=O)cccc1C(=O)N1CCOCC1 [Compound 411, 8-{2-[2-methyl-3-(morpholine-4-carbonyl)-phenyl]-ethanesulfonyl}-2-(3-trifluoromethoxy-phenyl)-1,3,8-triaza-spiro[4.5]dec-1-en-4-one]",54%
21,"Cc1ccc(C(=O)N(C)C)cc1CCS(=O)(=O)N1CCC2(CC1)N=C(c1cccc(OC(F)(F)F)c1)NC2=O [Compound 412, 4,N,N-Trimethyl-3-{2-[4-oxo-2-(3-trifluoromethoxy-phenyl)-1,3,8-triaza-spiro[4.5]dec-1-ene-8-sulfonyl]-ethyl}-benzamide]",54%
